Measurements: US12004506B2, “Pharmaceutical composition comprising a cyclic peptide of formula X1-[sequence]-X2 and use for extracorporeal lung treatment” (priority 2013, dated 2024)

Key:
[1] = system: sodium ion current in A549 cells (deglycosylated cell surface); test: Patch clamp assay, whole cell mode, on A549 cells deglycosylated with PNGase F; format: cell-based, human; conditions: 240 nM peptide, Eh -100 mV, A549
Method: In whole cell mode experiments as described above, A549 cells were incubated with “PNGase enzyme F” (Peptide-N^4-(N-acetyl-β-D-glucosaminyl)asparagine amidase F) 100 units for 1-5 minutes immediately prior to the patch clamp measurements and glass cover slips with the cultured cells were rinsed with external solution before being transferred to the chamber of the 1 mL bath.
The results of the deglycosylation experiments using the patch clamp assay in whole cell mode are presented in Table IV, wherein the effect of deglycosylation of A549 cells on activation of sodium ion current by peptides of SEQ ID NO:1 to SEQ ID NO:7 is indicated. Whole cell currents were recorded at Eh=−100 mV.

[2] = Stability of aqueous solution of the cyclised compound; format: physicochemical
Source text: For administration by inhalation/spraying, e.g. in the form of an aerosol, either the aqueous solution from the first dissolution step, or the lyophilisates obtained, re-dissolved in water, is subjected to spraying (atomizing) to obtain an aerosol, e.g. by use of a nebulizer. […] The appropriate lower limit of the droplet size is dependent only from the feasibility of the droplets.

[3] = laboratory syringe, 2 to 8° C., T = 0 and T = 7 days
[4] = storage tank of a nebulizer, 25° C., T = 0 and T = 24 hours

Q: What does the source list for `C[C@@H]1NC(=O)CNC(=O)[C@H](CCC(=O)O)NC(=O)[C@@H]2CCCN2C(=O)[C@H]([C@@H](C)O)NC(=O)[C@H](CCC(=O)O)NC(=O)[C@H](CCCNC(=N)N)NC(=O)[C@H](CCC(N)=O)NC(=O)CNC(=O)[C@@H](N)CSSC[C@@H](C(=O)O)NC(=O)[C@H](Cc2ccc(O)cc2)NC(=O)[C@H](Cc2c[nH]c3ccccc23)NC(=O)[C@@H]2CCCN2C(=O)[C@H](CCCCN)NC(=O)[C@H](C)NC(=O)[C@H](CCC(=O)O)NC1=O` [SEQ ID NO: 1]?
A: Whole cell current, pre-treatment with PNGase F [1]: 19.6 pA (n = 3); Purity (stability) ([2]; laboratory syringe, 2 to 8° C., T = 0): 96.3%; Amount/Content [2, 3]: 25 mg/mL; Appearance of aqueous solution [2, 3]: Clear solution; Purity (stability) ([2]; laboratory syringe, 2 to 8° C., T = 7 days): 96.2%; Purity (stability) ([2]; storage tank of a nebulizer, 25° C., T = 0): 96.6%; Amount/Content [2, 4]: 25 mg/mL; Appearance of aqueous solution [2, 4]: Clear solution; Purity (stability) ([2]; storage tank of a nebulizer, 25° C., T = 24 hours): 96.5%
